In article PMC3446636 (2012):

Target: Cyclin-dependent kinase 2 (CDK2) (Homo sapiens, UniProt P24941)

Km: ~100 µM
SMILES: Nc1ncnc2c1ncn2[C@@H]1O[C@H](COP(=O)(O)OP(=O)(O)OP(=O)(O)O)[C@@H](O)[C@H]1O [ATP]
